Results as given in patent publication US12428406B2 (PMV Pharmaceuticals, Inc., priority 2019, dated 2025).

Molecular target: T1, p53 Y220C (Homo sapiens, UniProt P04637, Y220C)
T1 construct: The recombinant protein was a truncation mutant containing only amino acids 94-312 of p53; made in house; host or cells: E. coli
Test: In vitro DNA binding activity assay (HTRF / TR-FRET): stabilization of p53 Y220C and increase of its DNA binding activity
Format: biochemical
Settings: recombinant His-tagged p53 Y220C DNA binding domain (aa 94-312), biotin-labeled consensus DNA, incubated at 27° C. or 29° C. for 60 min
Summary of the method: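 Homogeneous time-resolved fluorescence with E. coli-derived p53 Y220C and biotinylated consensus DNA. Room-temperature incubations of 15 and 20 min precede reading. SC150 denotes the compound concentration required for 50% increased DNA binding.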

T1 sequence (P04637 94-312, change not shown): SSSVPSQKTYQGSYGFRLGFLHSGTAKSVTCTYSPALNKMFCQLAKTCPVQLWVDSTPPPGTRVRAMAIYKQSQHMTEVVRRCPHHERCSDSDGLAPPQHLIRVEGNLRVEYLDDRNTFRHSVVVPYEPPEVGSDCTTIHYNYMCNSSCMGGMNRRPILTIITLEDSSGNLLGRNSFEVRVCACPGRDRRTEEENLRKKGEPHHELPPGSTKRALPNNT

SMILES	SC150 (concentration of the compound required to increase the DNA binding activity by 50%)
COc1cc(C(=O)N2CCN(C)CC2)ccc1NCC#Cc1cc2c(NC3CCN(C)CC3)cccc2n1CC(F)(F)F [Compound 501A, 2-(3-{[2-methoxy-4-(4-methylpiperazine-1-carbonyl)phenyl]amino}prop-1-yn-1-yl)-N-(1-methylpiperidin-4-yl)-1-(2,2,2-trifluoroethyl)-1H-indol-4-amine]	+ (+ = 0 μM ≤ SC150 < 0.05 μM)
COc1cc(S(C)(=O)=O)ccc1NCC#Cc1cc2c(NC3CCN(CC(O)COC(=O)C(C)C)CC3)cccc2n1CC(F)(F)F (stereo not shown) [Compound 592A, 2-hydroxy-3-{4-[(2-{3-[(4-methanesulfonyl-2-methoxyphenyl)amino]prop-1-yn-1-yl}-1-(2,2,2-trifluoroethyl)-1H-indol-4-yl)amino]piperidin-1-yl}propyl 2-methylpropanoate]	+ (+ = 0 μM ≤ SC150 < 0.05 μM)
COc1cc(S(N)(=O)=O)ccc1NCC#Cc1cc2c(N[C@H]3CC[C@H](N(CCO)CCO)CC3)cccc2n1CC(F)(F)F [Compound 44A, 3-methoxy-4-{[3-(4-{[(1R,4R)-4-[bis(2-hydroxyethyl)amino]cyclohexyl]amino}-1-(2,2,2-trifluoroethyl)-1H-indol-2-yl)prop-2-yn-1-yl]amino}benzene-1-sulfonamide]	+ (+ = 0 μM ≤ SC150 < 0.05 μM)
COc1cc(S(C)(=O)=O)ccc1NCC#Cc1cc2c(NC3CCN(C[C@@H](O)CO)CC3)cccc2n1CC(F)(F)F [Compound 557A, (2R)-3-{4-[(2-{3-[(4-methanesulfonyl-2-methoxyphenyl)amino]prop-1-yn-1-yl}-1-(2,2,2-trifluoroethyl)-1H-indol-4-yl)amino]piperidin-1-yl}propane-1,2-diol]	+ (+ = 0 μM ≤ SC150 < 0.05 μM)
CCC(=O)NS(=O)(=O)c1ccc(NCC#Cc2cc3c(NC4CCN(CC(COC)OC(=O)CC)CC4)cccc3n2CC(F)(F)F)c(OC)c1 (stereo not shown) [Compound 627A, 1-methoxy-3-(4-{[2-(3-{[2-methoxy-4-(propanamidosulfonyl)phenyl]amino}prop-1-yn-1-yl)-1-(2,2,2-trifluoroethyl)-1H-indol-4-yl]amino}piperidin-1-yl)propan-2-yl propanoate]	+ (+ = 0 μM ≤ SC150 < 0.05 μM)
COc1cc(C(=O)N[C@@H]2[C@@H](O)[C@H](O)[C@@H](CO)O[C@H]2O)ccc1NCC#Cc1cc2c(N[C@@H]3CCN(C)C[C@@H]3F)cccc2n1CC(F)(F)F [Compound 948A, 4-((3-(4-(((3S,4R)-3-fluoro-1-methylpiperidin-4-yl)amino)-1-(2,2,2-trifluoroethyl)-1H-indol-2-yl)prop-2-yn-1-yl)amino)-3-methoxy-N-((2R,3R,4R,5S,6R)-2,4,5-trihydroxy-6-(hydroxymethyl)tetrahydro-2H-pyran-3-yl)benzamide]	+ (+ = 0 μM ≤ SC150 < 0.05 μM)
COc1cc(S(N)(=O)=O)ccc1NCC#Cc1cc2c(N[C@H]3CC[C@H](N4CCC(C(F)(F)F)CC4)CC3)cccc2n1CC(F)(F)F [Compound 440A, 3-methoxy-4-{[3-(4-{[(1R,4R)-4-[4-(trifluoromethyl)piperidin-1-yl]cyclohexyl]amino}-1-(2,2,2-trifluoroethyl)-1H-indol-2-yl)prop-2-yn-1-yl]amino}benzene-1-sulfonamide]	+ (+ = 0 μM ≤ SC150 < 0.05 μM)
COc1cc(S(C)(=O)=O)ccc1NCC#Cc1cc2c(N[C@H]3CC[C@H](N4CC5COCC5C4)CC3)cccc2n1CC(F)(F)F (stereo partly drawn) [Compound 432A, 2-{3-[(4-methane-sulfonyl-2-methoxy-phenyl)amino]prop-1-yn-1-yl}-N-[(1R,4R)-4-{hexahydro-1H-furo[3,4-c]pyrrol-5-yl}cyclohexyl]-1-(2,2,2-trifluoroethyl)-1H-indol-4-amine]	+ (+ = 0 μM ≤ SC150 < 0.05 μM)
COc1cc(S(N)(=O)=O)ccc1NCC#Cc1cc2c(NC3CCN(C[C@@H]4COC(C)(C)O4)CC3)cccc2n1CC(F)(F)F [Compound 568A, 4-[(3-{4-[(1-{[(4R)-2,2-dimethyl-1,3-dioxolan-4-yl]methyl}piperidin-4-yl)amino]-1-(2,2,2-trifluoroethyl)-1H-indol-2-yl}prop-2-yn-1-yl)amino]-3-methoxybenzene-1-sulfonamide]	+ (+ = 0 μM ≤ SC150 < 0.05 μM)
COc1cc(S(N)(=O)=O)ccc1NCC#Cc1cc2c(N[C@H]3CC[C@@H](N4C[C@H](O)[C@@H](O)C4)CC3)cccc2n1CC(F)(F)F [Compound 58A, 3-methoxy-4-{[3-(4-{[(1S,4S)-4-[(3S,4S)-3,4-dihydroxypyrrolidin-1-yl]cyclohexyl]amino}-1-(2,2,2-trifluoroethyl)-1H-indol-2-yl)prop-2-yn-1-yl]amino}benzene-1-sulfonamide]	+ (+ = 0 μM ≤ SC150 < 0.05 μM)
CNc1cc(S(C)(=O)=O)ccc1OCC#Cc1cc2c(N[C@H]3CC[C@H](N(C)C)CC3)cccc2n1CC(F)(F)F [Compound 109A, (1R,4R)-N^4-(2-{3-[4-methanesulfonyl-2-(methylamino)phenoxy]prop-1-yn-1-yl}-1-(2,2,2-trifluoroethyl)-1H-indol-4-yl)-N^1,N^1-dimethylcyclohexane-1,4-diamine]	+ (+ = 0 μM ≤ SC150 < 0.05 μM)
COc1cc(C(=O)NC2CCN(C)CC2)ccc1NCC#Cc1cc2c(NC3CCN(C)CC3)cccc2n1CC(F)(F)F [Compound 498A]	+ (+ = 0 μM ≤ SC150 < 0.05 μM)
CNC(=O)c1ccc(NCC#Cc2cc3c(N[C@H]4CC[C@H](N5CC6(COC6)C5)CC4)cccc3n2CC(F)(F)F)c(OC)c1 [Compound 229A, 3-methoxy-N-methyl-4-{[3-(4-{[(1R,4R)-4-{2-oxa-6-azaspiro[3.3]heptan-6-yl}cyclohexyl]amino}-1-(2,2,2-trifluoroethyl)-1H-indol-2-yl)prop-2-yn-1-yl]amino}benzamide]	+ (+ = 0 μM ≤ SC150 < 0.05 μM)
CNc1cc(S(C)(=O)=O)ccc1OCC#Cc1cc2c(N[C@H]3CC[C@@H](N4CC5(COC5)C4)CC3)cccc2n1CC(F)(F)F [Compound 244A, 2-{3-[4-methanesulfonyl-2-(methylamino)phenoxy]prop-1-yn-1-yl}-N-[(1S,4S)-4-{2-oxa-6-azaspiro[3.3]heptan-6-yl}cyclohexyl]-1-(2,2,2-trifluoroethyl)-1H-indol-4-amine]	++ (++ = 0.05 μM ≤ SC150 < 0.1 μM)
COc1cc(S(C)(=O)=O)ccc1NCC#Cc1cc2c(N[C@H]3CC[C@H](N4CCS(=O)(=O)CC4)CC3)cccc2n1CC(F)(F)F [Compound 362A, 4-[(1R,4R)-4-[(2-{3-[(4-methanesulfonyl-2-methoxyphenyl)amino]prop-1-yn-1-yl}-1-(2,2,2-trifluoroethyl)-1H-indol-4-yl)amino]cyclohexyl]-1λ^6-thiomorpholine-1,1-dione]	+ (+ = 0 μM ≤ SC150 < 0.05 μM)
COc1cc(S(=O)(=O)N2CCN(C(C)=O)CC2)ccc1NCC#Cc1cc2c(NC3CCS(=O)(=O)CC3)cccc2n1CC(F)(F)F [Compound 1045A, 4-({2-[3-({4-[(4-acetylpiperazin-1-yl)sulfonyl]-2-methoxyphenyl}amino)prop-1-yn-1-yl]-1-(2,2,2-trifluoroethyl)-1H-indol-4-yl}amino)-1λ^6-thiane-1,1-dione]	+ (+ = 0 μM ≤ SC150 < 0.05 μM)
COc1cc(S(=O)(=O)N2CCOCC2)ccc1NCC#Cc1cc2c(NC3CCN(C(C)=O)CC3)cccc2n1CC(F)(F)F [Compound 758A, 1-(4-{1[2-(3-{1[2-methoxy-4-(morpholine-4-sulfonyl)phenyl]amino}prop-1-yn-1-yl)-1-(2,2,2-trifluoroethyl)-1H-indol-4-yl]amino}piperidin-1-yl)ethan-1-one]	+ (+ = 0 μM ≤ SC150 < 0.05 μM)
CS(=O)(=O)c1ccc(OCC#Cc2cc3c(N[C@H]4CC[C@@H](N5CC6(COC6)C5)CC4)cccc3n2CC(F)(F)F)c(N)c1 [Compound 233A, 2-[3-(2-amino-4-methanesulfonyl-phenoxy)prop-1-yn-1-yl]-N-[(1S,4S)-4-{2-oxa-6-azaspiro[3.3]heptan-6-yl}cyclohexyl]-1-(2,2,2-trifluoroethyl)-1H-indol-4-amine]	++ (++ = 0.05 μM ≤ SC150 < 0.1 μM)
CCN1CCC(Nc2cccc3c2cc(C#CCNc2ccc(S(C)(=O)=O)cc2OCC#N)n3CC(F)(F)F)CC1 [Compound 536A]	+ (+ = 0 μM ≤ SC150 < 0.05 μM)
CN1CC[C@H](Nc2cccc3c2cc(C#CCNc2ccc(S(C)(=O)=O)cc2O)n3CC(F)(F)F)[C@H](F)C1 [Compound 835A, 2-{[3-(4-{[(3R,4S)-3-fluoro-1-methylpiperidin-4-yl]amino}-1-(2,2,2-trifluoroethyl)-H-indol-2-yl)prop-2-yn-1-yl]amino}-5-methanesulfonylphenol]	+ (+ = 0 μM ≤ SC150 < 0.05 μM)
CN(C)CCOc1cc(S(C)(=O)=O)ccc1NCC#Cc1cc2c(NC3CCS(=O)(=O)CC3)cccc2n1CC(F)(F)F [Compound 1037A, 4-({2-[3-({2-[2-(dimethylamino)ethoxy]-4-methanesulfonylphenyl}amino)prop-1-yn-1-yl]-1-(2,2,2-trifluoroethyl)-1H-indol-4-yl}amino)-1λ^6-thiane-1,1-dione]	++ (++ = 0.05 μM ≤ SC150 < 0.1 μM)
COCC(O)CN1CCC(Nc2cccc3c2cc(C#CCNc2ccc(S(C)(=O)=O)cc2OC)n3CC(C)(F)F)CC1 (stereo not shown) [Compound 712A, 1-(4-{[1-(2,2-difluoropropyl)-2-{3-[(4-methanesulfonyl-2-methoxyphenyl)amino]prop-1-yn-1-yl}-1H-indol-4-yl]amino}piperidin-1-yl)-3-methoxypropan-2-ol]	++ (++ = 0.05 μM ≤ SC150 < 0.1 μM)
